From patent US20250179057A1, “MEK IMMUNE ONCOLOGY INHIBITORS AND THERAPEUTIC USES THEREOF” (Immuneering Corporation, priority 2022, published 2025)
Where a name gives a salt, the structure may show the parent alone.

Columns and labels:
balb/c mouse hepatocytes = assay: Hepatocyte stability, balb/c mouse; assay type: in vitro ADME; details: 2 μM, 0.5 million cells/ml
Description: (§1) In this study, human, cynomolgus monkey, beagle dog, wistar hannover rat, and balb/c mouse hepatocyle stability was determined.

[1] = Plasma stability, beagle dog plasma (K2EDTA); assay type: in vitro ADME; details: 2 μM; for % Remaining at T120 / half-life at 2 μM: beagle dog plasma, anti-coagulant K2-EDTA; for % Remaining at T120: 120 min; for half-life at 2 μM: read-out: T1/2
Description: (§2) Individual stock solutions of propantheline and lovastatin were prepared at 10 mM in DMSO and were further diluted to 2 mM with DMSO.
(§3) Frozen matrices (Balb/c mouse, Wistar Han rat, Beagle dog, and human plasma containing K2EDTA as anti-coagulant) were thawed and centrifuged at 3100 rpm for 10 minutes at 4° C. to remove particulates. The lipid layer was then removed, and the supernatant was transferred to a new tube without disturbing the pellet. After the matrices were incubated at 37° C. for at least 10 minutes, the pH of each matrix was adjusted to pH 7.4, using 10% phosphoric acid or 1N sodium hydroxide as necessary. Test and control article stock solutions were spiked (2 μL) into matrix (1.998 mL) and mixed to final assay concentration of […]. Duplicate 30-μL aliquots of spiked plasma were transferred to matrix tubes in 96-well plate immediately after spiking for timepoints of 0, 30, 60, 120, 240, and 360 minutes. These tubes were then incubated at 37° C. with shaking and at each timepoint, the corresponding tubes containing samples were quenched with 180 μL of cold acetonitrile containing the internal standards. The quenched samples were vortex-mixed briefly and stored refrigerated. After the final time point (360 minutes), the plates with all quenched samples were vortex-mixed for 10 minutes and then centrifuged at 3100 rpm for 10 minutes at 4° C. to sediment the precipitated protein. The supernatant (50 μL) was transferred to a clean 96-well plate and diluted with 100 μL of water. The plates were stored refrigerated until analysis.
(§4) Data Analysis: Peak area ratios for IS-normalized test article and control article counts were used to calculate the percent remaining relative to the time zero (T0) value. As appropriate, results were plotted and further analyzed to calculate half-life (T1/2) values.
(§5) Mean peak area ratios were used to calculate the % remaining relative to the T0 value:
(§6) In this study, human, cynomolgus monkey, beagle dog, wistar hannover rat, and balb/c plasma stability was determined. Table 28 describes the results of the human plasma stability at 2 μM concentration and anti-coagulant K2-EDTA from 10 to 120 min. Table 29 describes the results of the cynomolgus monkey plasma stability at 2 μM concentration and anti-coagulant K2-EDTA. Table 30 describes the results of the beagle dog plasma stability at 2 μM concentration and anti-coagulant K2-EDTA. Table 31 describes the results of the wistar hannover rat plasma stability at 2 μM concentration and anti-coagulant K2-EDTA. Table 32 describes the results of the balb/c plasma stability at 2 μM concentration and anti-coagulant K2-EDTA.

[2] = Plasma stability, human plasma (K2EDTA); assay type: in vitro ADME; details: 2 μM; for % Remaining at T120 / half-life at 2 μM: human plasma, anti-coagulant K2-EDTA; for % Remaining at T120: 120 min; for half-life at 2 μM: 10 to 120 min, read-out: T1/2
Description: as §2, §3, §4, §5, §6

beagle dog hepatocytes = assay: Hepatocyte stability, beagle dog; assay type: in vitro ADME; details: 2 μM, 0.5 million cells/ml
Description: as §1

CYP2C9 = CYP2C9 (Homo sapiens, UniProt P11712); assay: CYP450 panel inhibition in human liver microsomes, 2C9 (diclofenac); details: human, pH 7.4; for inhibition at 30 min, 10 µM: microsomes
CYP2C9, sequence (P11712 whole entry): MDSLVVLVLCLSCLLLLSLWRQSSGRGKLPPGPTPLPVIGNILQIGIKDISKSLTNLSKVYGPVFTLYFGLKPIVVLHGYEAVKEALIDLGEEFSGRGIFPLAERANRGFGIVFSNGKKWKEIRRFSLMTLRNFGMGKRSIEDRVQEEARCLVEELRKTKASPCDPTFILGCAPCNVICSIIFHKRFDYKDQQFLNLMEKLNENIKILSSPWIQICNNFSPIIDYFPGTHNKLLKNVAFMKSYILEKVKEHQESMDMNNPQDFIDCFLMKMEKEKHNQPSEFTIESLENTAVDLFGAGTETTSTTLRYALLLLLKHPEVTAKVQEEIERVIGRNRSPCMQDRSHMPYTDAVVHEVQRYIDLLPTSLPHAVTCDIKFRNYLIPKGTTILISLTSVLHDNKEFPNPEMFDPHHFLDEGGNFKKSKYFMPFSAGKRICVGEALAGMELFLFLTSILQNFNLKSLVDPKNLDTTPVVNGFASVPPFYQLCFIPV
Text: The quenched samples were stored refrigerated.

human hepatocytes = assay: Hepatocyte stability, human; assay type: in vitro ADME; details: 2 μM, 0.5 million cells/ml, 120 min
Description: as §1

[3] = Plasma stability, mouse plasma (Balb/c; Table 5 head CD-1 Mouse); assay type: in vitro ADME; details: balb/c plasma, 2 μM, anti-coagulant K2-EDTA; for % Remaining at T120: 120 min; for half-life at 2 μM: mouse, pH 7.4, read-out: T1/2
Description: as §2, §3, §4, §5, §6

Caco-2 cells = assay: Caco-2 bidirectional permeability (absorption & efflux); details: Example 47
[4] = tested on: cynomolgus monkey hepatocytes; assay: Hepatocyte stability, cynomolgus monkey; assay type: in vitro ADME; details: 2 μM, 0.5 million cells/ml
Description: as §1

[5] = tested on: wistar hannover rat hepatocytes; assay: Hepatocyte stability, wistar hannover rat; assay type: in vitro ADME; details: 2 μM, 0.5 million cells/ml
Description: as §1

SMILES | % Remaining At T120 (balb/c mouse hepatocytes) [%] | % Remaining at T120 [1] [%] | half-life at 2 μM ([1]; pH 7.4) [h] | % Remaining at T120 [2] [%] | half-life at 2 μM ([2]; pH 7.4) [h] | % Remaining At T120 (beagle dog hepatocytes) [%] | inhibition at 30 min, 10 µM (CYP2C9) [%] | % Remaining At T120 (human hepatocytes) [%] | % Remaining at T120 [3] [%] | half-life at 2 μM [3] [h] | A − B Permeability Ranking (Caco-2 cells) | % Remaining At T120 [4] [%] | % Remaining At T120 [5] [%] | Beagle Dog (% Reamining @2 hour) ([1]; beagle, dog, 2 h, pH 7.4) [%] | Human (% Reamining @2 hour) ([2]; human, 2 h, pH 7.4) [%] | CYP2C9 inhibition (CYP2C9; 30 min, 10 μM) [%] | Beagle Dog (% Reamining @2 hour) ([1]; plasma, 2 hour) [%] | Human (% Reamining @2 hour) ([2]; plasma, 2 hour) [%]
CNS(=O)(=O)Nc1cccc(Cc2c(CN3CCNCC3)c3cc(Cl)c(OC(=O)N(C)C)cc3oc2=O)c1Cl [Compound 256, 6-chloro-3-(2-chloro-3-((N-methylsulfamoyl)amino)benzyl)-2-oxo-4-(piperazin-1-ylmethyl)-2H-chromen-7-yl dimethylcarbamate hydrochloride] | 65.6 | 99.4 | > 2 | 84.8 | 14 | 62.8 | 36.5 | 91.4 | 86.8 | 9.77 | Higher | 53.9 | 45.7 |  |  |  |  | 
CNS(=O)(=O)Nc1cccc(Cc2c(CN(C)C)c3ccc(OC(=O)N(C)C)cc3oc2=O)c1Cl [Compound 274, 3-(2-chloro-3-((N-methylsulfamoyl)amino)benzyl)-4-((dimethylamino)methyl)-2-oxo-2H-chromen-7-yl dimethylcarbamate] | 64.3 | 100.5 | > 2 | 121.2 | > 2 | 51.9 | 17.1 | 47.5 | 92.7 | 126 | Higher | 24.5 | 34.9 |  |  |  |  | 
Cn1cnc2c(F)c(Nc3ccc(Br)cc3Cl)c(C(=O)NOCCO)cc21 [Reference-1, Selumetinib] |  |  |  |  |  |  |  |  |  |  |  |  |  | 100.4 | 98.1 | 14.1 |  | 
CNS(=O)(=O)Nc1nccc(Cc2c(C)c3ccc(Oc4ncccn4)cc3oc2=O)c1F [Reference-2, reference compound] |  |  |  |  |  |  |  |  |  |  |  |  |  |  |  |  | 99.8 | 91.1
CCN(C)Cc1c(Cc2cccc(NS(=O)(=O)NC)c2F)c(=O)oc2cc(OC(=O)N(C)C)c(F)cc12 [Compound 238] | 57.3 | 93.8 | 23.2 | 95.7 | 68.6 | 31.1 |  | 27.3 | 57.5 | 2.67 | Higher | 23.3 | 23.0 |  |  |  |  | 
